Each structure is given as a SMILES string.

A short description of the assay: Speed of silver telluride formation in a silver halide emulsion (Kubelka-Munk reflectivity test). The format is physicochemical. The conditions noted are these: octahedral silver bromide emulsion, 50°C, pH 6.3, pAg 8.3, telluride 1 × 10^-3 mol/mol Ag, reflectivity at 520 nm. On the procedure:
The speed with which silver telluride is formed in the silver halide emulsion can be determined by the following test.
When a tellurium sensitizer is added in a great amount (e.g., 1 × 10^-3 mol/mol Ag), the silver telluride formed absorbs light beam of the visible region. […] 181 (1966) and ibid., Vol. 16, p. 102 (1968) can be applied for sulfur sensitizers. Therefore, the relative speed at which silver telluride is formed can easily be obtained by the same method as used in determining the amount of silver sulfide formed in a silver halide emulsion from the infinite reflectivity of the emulsion to visible light beams (520 nm) in accordance the Kubelka-Munk formula. […]
An emulsion which contains octahedral silver bromide grains having an average size of 0.5 µm (containing 0.75 mol of AgBr and 80 g of gelatin per kilogram) is maintained at 50°C, while holding pH and pAg at 6.3 and 8.3, respectively. […] Then, the reflectivity (R) of the emulsion to light beams of 520 nm is detected at times by means of a spectrophotometer having an integrating sphere, using the reflectivity of a blank emulsion as reference. Every reflectivity, thus detected, is substituted in the Kubelka-Munk formula, (1-R)^2/2R. The time spend until the value of (1-R)^2/2R becomes 0.01 is measured. The pseudo-first-order reaction rate constant k (min-1) is determined from the time thus measured. […]

Consider `CC(C)P(=[Te])(C(C)C)C(C)C` [Compound 4, ((i)C3H7)3P = Te], for which the “pseudo-first-order reaction rate constant k” value is roughly 7e-05 min⁻¹.

For the compound `CC(C)CP(=[Te])(CC(C)C)CC(C)C` [Compound 7, ((i)C4H9)3P = Te], the “pseudo-first-order reaction rate constant k” value was roughly 0.004 min⁻¹.

The values above are taken from patent EP0572662B1, “SILVER HALIDE PHOTOGRAPHIC MATERIAL” (FUJI PHOTO FILM CO., LTD., priority 1991, dated 1993).
